The record followed here is US20240391930A1, “SPIROCYCLIC BICYCLIC MODULATORS OF CHOLESTEROL BIOSYNTHESIS AND THEIR USE FOR PROMOTING REMYELINATION” (GENENTECH, INC., priority 2021, published 2024).

One experiment addresses T1, human EBP (Homo sapiens, UniProt Q15125).
T1 construct: expressed in transfected cells; host or cells: human embryonic kidney 293 cells
Put plainly: hEBP SPA competition binding assay ([3H]-Ifenprodil). The method, then: Membrane preparation: To examine compound binding affinity to EBP, human EBP was overexpressed in human embryonic kidney 293 cells. Cell pellet was lysed in 10 times weight binding buffer (50 mM Tris, 5 mM MgCl2, 0.1 mM EDTA, lx protease inhibitor cocktail, pH 7.5) on ice by using a dounce homogenizer. The solution was centrifuged at 25,000 g for 50 min at 4° C. The membrane pellet was re-suspended in binding buffer and run through a 25⅝ gauge needle. After checking the concentration by Bradford assay, the whole cell membrane solution was adjusted to 20 mg/mL and stored at −80° C.
This binding solution was centrifuged at 400 g for 5 minutes to collect the bead/membrane mixture. After re-suspending the pellet in binding buffer at the same calculated volume with 0.01% BSA (Sigma A1933), the bead/membrane mixture was added in 384-well low-binding surface plate (PerkinElmer Cat #6057480) at 25 µl/well. Radioligand at different concentrations with and without the non-radio-labeled same ligand 5 uM (for nonspecific and total signal, respectively) was added to bring final volume to 50 µl/well with DMSO concentration at 0.1%. At equilibrium (3 hours after ligand addition), radiometric signal CPM was counted by using a Microbeta2 microplate counter (Perkinelmer).
A pre-incubated bead/membrane mixture was added in compound plate at 0.3 mg beads and […] membrane per well. […] At equilibrium (3 hours after ligand addition), radiometric signal was counted as described above. The percentage inhibition of compound at each testing concentration was calculated by normalizing each condition's CPM readout to full block (5 uM non-radiolabeled ligand) and non-block (DMSO) control conditions. Compound binding inhibition IC50 was determined by nonlinear regression fitting of percentage inhibition plot against compound concentration. Compound Ki was calculated from the equation Ki=IC50/(1+[L]/Kd), which [L] was radioligand concentration used in assay. All tests had N bigger or equal to 2.

In experiment [1] the test system is zymostenol accumulation in EpiSC-derived OPCs (EBP). Put plainly: GC/MS-based sterol profiling (zymostenol accumulation). Particulars: Mus musculus, 24 hours, 8 doses from 0.15 nM to 333 nM, read-out: Zymostenol GCMS EC50. Format: cell-based. In short, it runs like this: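 Zymostenol level is expressed relative to that after 24 h with 100 nM positive-control reference, measured by full-scan GC/MS (m/z 458) with cholesterol-d7 internal standard after BSTFA derivatisation. Cells were EpiSC-derived OPCs, 100,000/well in N2B27 without growth factors, treated 24 h, from two or more independent platings.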

T1 sequence (Q15125 whole entry): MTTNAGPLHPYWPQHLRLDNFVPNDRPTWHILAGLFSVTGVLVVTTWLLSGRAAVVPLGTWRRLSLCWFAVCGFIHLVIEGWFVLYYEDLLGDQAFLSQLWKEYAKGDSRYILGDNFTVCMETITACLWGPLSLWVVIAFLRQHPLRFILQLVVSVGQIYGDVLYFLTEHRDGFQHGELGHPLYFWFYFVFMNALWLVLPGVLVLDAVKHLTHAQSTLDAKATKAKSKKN

As to `CC(C)n1nc(-c2cccc(C(F)(F)F)c2)cc1[C@H]1[C@@H]2C[C@@H](N3CCC4(C3)CS(=O)(=O)C4)C[C@@H]21` (single isomer, unassigned) [Compound 2], affinity at human EBP was put at a Ki of 38 nM. Also, in experiment [1], the EC50 (commonly the concentration that produces a half-maximal response) was 1.81 nM.
With `CC(C)n1nc(-c2cncc(C(F)(F)F)c2)cc1[C@H]1[C@@H]2C[C@H](N3CCC4(C3)CS(=O)(=O)C4)C[C@@H]21` (single isomer, unassigned) [Compound 4], the affinity on human EBP, expressed as Ki, was 31 nM. Further, the EC50 in experiment [1] was determined as 3 nM.
Taken in the same sequence, the figures for `CC(C)n1nc(-c2cncc(C(F)(F)F)c2)cc1[C@H]1[C@@H]2C[C@H](N3CC[C@@]4(CCS(=O)(=O)C4)C3)C[C@@H]21` (single isomer, unassigned) [Compound 9*] were 26 nM and 2.7 nM.
Taken in the same sequence, the figures for `CC(C)n1nc(-c2cccc(C(F)(F)F)n2)cc1[C@H]1[C@@H]2C[C@@H](N3CCC4(C3)CS(=O)(=O)C4)C[C@@H]21` (single isomer, unassigned) [Compound 11] were 36 nM and 7.2 nM.
The matching figures for `CC(C)n1nc(-c2cccc(C(F)(F)F)n2)cc1[C@H]1[C@@H]2C[C@H](N3CCC4(C3)CS(=O)(=O)C4)C[C@@H]21` (single isomer, unassigned) [Compound 12]: 17 nM and 3.7 nM.
With `CC(C)n1nc(-c2cncc(C(F)(F)F)c2)nc1[C@H]1[C@@H]2C[C@@H](N3CCC4(C3)CS(=O)(=O)C4)C[C@@H]21` (single isomer, unassigned) [Compound 16], the affinity on human EBP corresponds to a Ki of 20 nM. In addition, the 50% effective concentration (EC50) in experiment [1] worked out at 6.7 nM.
As to `CC(C)n1nc(-c2cncc(C(F)(F)F)c2)nc1[C@H]1[C@@H]2C[C@H](N3CCC4(C3)CS(=O)(=O)C4)C[C@@H]21` (single isomer, unassigned) [Compound 17], the Ki (in general, a dissociation constant, usually derived from enzyme kinetics or from competition with a known ligand) at human EBP stood at 67 nM. Moreover, in experiment [1], the EC50 turned out to be 42 nM.
Taken in the same sequence, the figures for `CC(C)n1nc(-c2ccnc(C(F)(F)F)c2)cc1[C@H]1[C@@H]2C[C@@H](N3CCC4(C3)CS(=O)(=O)C4)C[C@@H]21` (single isomer, unassigned) [Compound 18] were 30 nM and 2.3 nM.
Taken in the same sequence, the figures for `CC(C)n1nc(-c2ccnc(C(F)(F)F)c2)cc1[C@H]1[C@@H]2C[C@H](N3CCC4(C3)CS(=O)(=O)C4)C[C@@H]21` (single isomer, unassigned) [Compound 19] were 16 nM and 2.5 nM.
`CC(C)n1nc(-c2cc(C(F)(F)F)ccn2)cc1[C@H]1[C@@H]2C[C@@H](N3CCC4(C3)CS(=O)(=O)C4)C[C@@H]21` (single isomer, unassigned) [Compound 20]: on human EBP, the affinity, expressed as Ki, was 62 nM. The EC50 in experiment [1] was 1.2 nM.
As to `CC(C)n1nc(-c2cc(C(F)(F)F)ccn2)cc1[C@H]1[C@@H]2C[C@H](N3CCC4(C3)CS(=O)(=O)C4)C[C@@H]21` (single isomer, unassigned) [Compound 21], the affinity on human EBP corresponds to a Ki of 43 nM. In experiment [1], the EC50 was 3.1 nM.
The matching figures for `CC(C)n1nc(C(F)(F)F)cc1[C@H]1[C@@H]2C[C@@H](N3CCC4(C3)CS(=O)(=O)C4)C[C@@H]21` (single isomer, unassigned) [Compound 22]: 30 nM and 12 nM.
Consider `CC(C)n1nc(C(F)(F)F)cc1[C@H]1[C@@H]2C[C@H](N3CCC4(C3)CS(=O)(=O)C4)C[C@@H]21` (single isomer, unassigned) [Compound 23], for which the Ki on human EBP worked out at 13 nM. Moreover, the EC50 in experiment [1] was found to be 12 nM.
`CCn1nc(-c2cncc(C(F)(F)F)c2)cc1[C@H]1[C@@H]2C[C@@H](N3CCC4(C3)CS(=O)(=O)C4)C[C@@H]21` (single isomer, unassigned) [Compound 24] came in with a Ki at human EBP of 30 nM. In addition, the concentration for a half-maximal effect (EC50) in experiment [1] stood at 1.8 nM.
In turn, `CCn1nc(-c2cncc(C(F)(F)F)c2)cc1[C@H]1[C@@H]2C[C@H](N3CCC4(C3)CS(=O)(=O)C4)C[C@@H]21` (single isomer, unassigned) [Compound 25] displayed a Ki on human EBP of 26 nM. Moreover, the EC50 in experiment [1] is 0.36 nM.
Taken in the same sequence, the figures for `CC(C)n1nc(-c2cncc(C(F)(F)F)c2)cc1[C@H]1[C@@H]2C[C@@H](N3CCC4(CC3)CS(=O)(=O)C4)C[C@@H]21` (single isomer, unassigned) [Compound 38] were 26 nM and 2.9 nM.
The matching figures for `CC(C)n1nc(-c2cncc(C(F)(F)F)c2)cc1[C@H]1[C@@H]2C[C@H](N3CCC4(CC3)CS(=O)(=O)C4)C[C@@H]21` (single isomer, unassigned) [Compound 40]: 26 nM and 5.9 nM.
The matching figures for `CC(C)n1nc(-c2cccc(C(F)(F)F)n2)cc1[C@H]1[C@@H]2C[C@@H](N3CCC4(CC3)CS(=O)(=O)C4)C[C@@H]21` (single isomer, unassigned) [Compound 47]: 19 nM and 1.9 nM.
With `CC(C)n1nc(-c2cccc(C(F)(F)F)n2)cc1[C@H]1[C@@H]2C[C@H](N3CCC4(CC3)CS(=O)(=O)C4)C[C@@H]21` (single isomer, unassigned) [Compound 48], the affinity at human EBP corresponds to a Ki of 15 nM. In experiment [1], the EC50 came to 10 nM.
In turn, `CC(C)n1nc(-c2ccnc(C(F)(F)F)n2)cc1[C@H]1[C@@H]2C[C@@H](N3CCC4(CC3)CS(=O)(=O)C4)C[C@@H]21` (single isomer, unassigned) [Compound 49] showed a Ki at human EBP of 24 nM. The EC50 in experiment [1] worked out at 2.7 nM.
The matching figures for `CC(C)n1nc(-c2ccnc(C(F)(F)F)n2)cc1[C@H]1[C@@H]2C[C@H](N3CCC4(CC3)CS(=O)(=O)C4)C[C@@H]21` (single isomer, unassigned) [Compound 50]: 18 nM and 20 nM.
Taken in the same sequence, the figures for `CC(C)n1nc(-c2cncc(C(F)(F)F)c2)cc1[C@H]1[C@@H]2C[C@@H](N3CC4(C3)CS(=O)(=O)C4)C[C@@H]21` (single isomer, unassigned) [Compound 98*] were 51 nM and 55 nM.
The matching figures for `CC(C)n1nc(-c2cncc(C(F)(F)F)c2)cc1[C@H]1[C@@H]2C[C@H](N3CC4(C3)CS(=O)(=O)C4)C[C@@H]21` (single isomer, unassigned) [Compound 99*]: 58 nM and 86 nM.
Regarding `CC(C)n1nc(-c2ccc(C(F)(F)F)cc2)cc1[C@H]1[C@@H]2C[C@H](N3CCC4(C3)CS(=O)(=O)C4)C[C@@H]21` [Compound 5, 6-((1R,3r,5S,6r)-6-(1-Isopropyl-3-(4-(trifluoromethyl)phenyl)-1H-pyrazol-5-yl)bicyclo[3.1.0]hexan-3-yl)-2-thia-6-azaspiro[3.4]octane 2,2-dioxide], at human EBP, the inhibition constant Ki was found to be 22 nM. Also, in experiment [1], the EC50 was 3.6 nM.
The matching figures for `CC(C)n1nc(-c2cnc(C(F)(F)F)nc2)cc1[C@H]1[C@@H]2C[C@H](N3CCC4(C3)CS(=O)(=O)C4)C[C@@H]21` [Compound 6, 6-((1R,3r,5S,6r)-6-(1-Isopropyl-3-(2-(trifluoromethyl)pyrimidin-5-yl)-1H-pyrazol-5-yl)bicyclo[3.1.0]hexan-3-yl)-2-thia-6-azaspiro[3.4]octane 2,2-dioxide]: 19 nM and 29 nM.
As to `CC(C)n1nc(-c2ccnc(C(F)(F)F)n2)cc1[C@H]1[C@@H]2C[C@H](N3CCC4(C3)CS(=O)(=O)C4)C[C@@H]21` [Compound 15, 6-((1R,3r,5S,6r)-6-(1-Isopropyl-3-(2-(trifluoromethyl)pyrimidin-4-yl)-1H-pyrazol-5-yl)bicyclo[3.1.0]hexan-3-yl)-2-thia-6-azaspiro[3.4]octane 2,2-dioxide], on human EBP, the Ki was 19 nM. Also, in experiment [1], the EC50 stood at 3.2 nM.
Compound `CC(C)n1nc(-c2ccnc(C(F)(F)F)n2)cc1[C@H]1[C@@H]2C[C@@H](N3CCC4(C3)CS(=O)(=O)C4)C[C@@H]21` [Compound 28, 6-((1R,3s,5S,6r)-6-(1-isopropyl-3-(2-(trifluoromethyl)pyrimidin-4-yl)-1H-pyrazol-5-yl)bicyclo[3.1.0]hexan-3-yl)-2-thia-6-azaspiro[3.4]octane 2,2-dioxide] had a Ki at human EBP of 22 nM. In addition, the EC50 in experiment [1] turned out to be 6 nM.
The matching figures for `C=C(c1cc([C@H]2[C@@H]3C[C@H](N4CCC5(C4)CS(=O)(=O)C5)C[C@@H]32)n(C(C)C)n1)C(F)(F)F` [Compound 31, 6-((1R,3r,5S,6r)-6-(1-Isopropyl-3-(3,3,3-trifluoroprop-1-en-2-yl)-1H-pyrazol-5-yl)bicyclo[3.1.0]hexan-3-yl)-2-thia-6-azaspiro[3.4]octane 2,2-dioxide]: 37 nM and 7.1 nM.
